Data from ChEMBL document CHEMBL1145650, “5-Aryluracils as potent GnRH antagonists-Characterization of atropisomers” (Bioorg Med Chem Lett, 2008).

Tests used:
[1] = biological target: T1, Gonadotropin-releasing hormone receptor (Homo sapiens, UniProt P30968); assay: Antagonist activity at human GnRHR assessed as inhibition of calcium flux by IP3 assay; assay type: functional
T1 sequence (P30968 whole entry): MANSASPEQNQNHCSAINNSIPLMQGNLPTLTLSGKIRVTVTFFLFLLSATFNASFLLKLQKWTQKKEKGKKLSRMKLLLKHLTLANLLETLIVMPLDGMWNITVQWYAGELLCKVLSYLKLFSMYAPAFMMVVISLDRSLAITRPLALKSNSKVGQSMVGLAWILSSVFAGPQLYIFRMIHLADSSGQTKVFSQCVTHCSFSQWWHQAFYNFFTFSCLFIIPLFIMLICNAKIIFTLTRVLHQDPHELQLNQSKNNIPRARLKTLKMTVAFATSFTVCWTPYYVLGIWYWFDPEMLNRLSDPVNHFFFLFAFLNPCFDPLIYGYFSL

[2] = biological target: T1, Gonadotropin-releasing hormone receptor; assay: Binding affinity to human GnRHR

Structure (SMILES)	IC50 [1] [nM]	Ki [2] [nM]
COc1cccc(-c2c(C)n(Cc3c(F)cccc3C(F)(F)F)c(=O)n(C[C@H](C)NC3CCCC3)c2=O)c1F	3.3	0.61
COc1cccc(-c2c(C)n(Cc3c(F)cccc3C(F)(F)F)c(=O)n(C[C@H](C)NC3CCCC3)c2=O)c1Cl (single isomer, unassigned; form 2)	1.5	0.3
COc1cccc(-c2c(C)n(Cc3c(F)cccc3C(F)(F)F)c(=O)n(C[C@H](CO)NC3CCCC3)c2=O)c1Cl	5.4	0.7
CC[C@@H](Cn1c(=O)c(-c2cccc(OC)c2Cl)c(C)n(Cc2c(F)cccc2C(F)(F)F)c1=O)NC1CCCC1		3.7
CC[C@@H](Cn1c(=O)c(-c2cccc(OC)c2F)c(C)n(Cc2c(F)cccc2C(F)(F)F)c1=O)NC1CCCC1		4.2
CC[C@H](Cn1c(=O)c(-c2cccc(OC)c2F)c(C)n(Cc2c(F)cccc2C(F)(F)F)c1=O)NC1CCCC1		20
COc1cccc(-c2c(C)n(Cc3c(F)cccc3C(F)(F)F)c(=O)n(C[C@H](C)NC3CCCC3)c2=O)c1Cl (single isomer, unassigned; form 1)	385	61
CC[C@H](Cn1c(=O)c(-c2cccc(OC)c2Cl)c(C)n(Cc2c(F)cccc2C(F)(F)F)c1=O)NC1CCCC1		7.4

Further lines, results first:

IC50 [1] [nM]	Ki [2] [nM]	Structure (SMILES)
2500	190	COc1cccc(-c2c(C)n(Cc3c(F)cccc3C(F)(F)F)c(=O)n(C[C@H](CO)NC3CCCC3)c2=O)c1Cl (single isomer, unassigned; atropisomer)
2.6	0.36	COc1cccc(-c2c(C)n(Cc3c(F)cccc3C(F)(F)F)c(=O)n(C[C@H](CO)NC3CCCC3)c2=O)c1Cl (atropisomer R)
	33	COc1cccc(-c2c(C)n(Cc3c(F)cccc3C(F)(F)F)c(=O)n(C[C@@H](C)NC3CCCC3)c2=O)c1F
	4.5	COc1cccc(-c2c(C)n(Cc3c(F)cccc3C(F)(F)F)c(=O)n(C[C@H](C)NC3CCCC3)c2=O)c1
	4.9	COc1cccc(-c2c(C)n(Cc3c(F)cccc3F)c(=O)n(C[C@H](CO)NC3CCCC3)c2=O)c1F
